Experimental data as given in patent publication US8168592B2 (Amgen Inc., priority 2005, dated 2012).
Bridge positions count the residues as written; N and C are the ends. Square brackets hold non-standard residues; d marks the D form. Peptide text beside a SMILES is read from it. hArg = N=C(N)NCCCC[C@H](N)C(=O)O; Cit = NC(=O)NCCC[C@H](N)C(=O)O

Target: T1, CGRP1 receptor (Homo sapiens, UniProt O60894+Q16602)
T1 construct: SK-N-MC cells express CRLR and RAMP1, which form CGRP1 receptor; endogenous in cells; host or cells: SK-N-MC human neuroblastoma cells
Experiment: in vitro CGRP1 receptor mediated cAMP assay in SK-N-MC cells
Type: cell-based
Settings: Peptide IC50, Table 2C; unconjugated peptide
Method in brief: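 Human SK-N-MC neuroblastoma cells, which endogenously express CRLR/RAMP1, were plated two days before assay and preincubated in plasma-free medium for 15 minutes at room temperature. Cells were then lysed for 30 minutes at 37° C, and cAMP in the lysates was quantified by competitive cAMP-AP chemiluminescent ELISA.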

T1 sequence (Q16602 23-461): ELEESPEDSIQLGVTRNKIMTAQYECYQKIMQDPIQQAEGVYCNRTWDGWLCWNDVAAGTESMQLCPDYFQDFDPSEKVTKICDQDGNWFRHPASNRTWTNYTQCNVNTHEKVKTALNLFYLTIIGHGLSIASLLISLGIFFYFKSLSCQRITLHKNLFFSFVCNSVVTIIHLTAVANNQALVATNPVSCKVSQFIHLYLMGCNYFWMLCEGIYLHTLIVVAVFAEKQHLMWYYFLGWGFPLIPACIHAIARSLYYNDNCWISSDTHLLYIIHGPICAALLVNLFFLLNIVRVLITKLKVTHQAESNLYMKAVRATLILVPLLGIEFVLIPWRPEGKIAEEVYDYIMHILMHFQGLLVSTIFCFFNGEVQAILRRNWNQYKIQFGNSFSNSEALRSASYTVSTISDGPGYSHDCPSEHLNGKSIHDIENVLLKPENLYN
T1 sequence (O60894 27-148): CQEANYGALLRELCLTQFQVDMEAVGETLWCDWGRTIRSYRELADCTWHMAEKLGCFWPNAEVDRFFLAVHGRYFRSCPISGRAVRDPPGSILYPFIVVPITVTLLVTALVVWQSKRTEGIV

Row | SMILES | IC50
1 | CC(=O)N[C@@H](Cc1c[nH]c2ccccc12)C(=O)N[C@H](C(=O)N[C@H]1CCC(=O)NCCCC[C@@H](C(=O)NCC(=O)N[C@@H](CC(C)C)C(=O)N[C@@H](CC(C)C)C(=O)N[C@@H](CO)C(=O)N[C@@H](CCCNC(N)=O)C(=O)N[C@@H](CO)C(=O)NCC(=O)NCC(=O)N[C@H](C(=O)N[C@H](C(=O)N[C@@H](CCCNC(=N)N)C(=O)N[C@@H](CCCCN)C(=O)N[C@@H](CC(N)=O)C(=O)N[C@@H](Cc2ccccc2)C(=O)N[C@H](C(=O)N2CCC[C@H]2C(=O)N[C@H](C(=O)N[C@@H](CC(=O)O)C(=O)N[C@H](C(=O)NCC(=O)N2CCC[C@H]2C(=O)N[C@@H](Cc2ccccc2)C(=O)N[C@@H](C)C(=O)N[C@@H](Cc2ccccc2)C(N)=O)C(C)C)[C@@H](C)O)C(C)C)C(C)C)C(C)C)NC(=O)[C@H](CC(C)C)NC(=O)[C@H](CCCNC(=N)N)NC(=O)[C@H](Cc2c[nH]cn2)NC1=O)C(C)C [compound 893] (Ac-WVEHRLKGLLS[Cit]SGGVVRKNFVPTDVGPFAF-NH2; lactam 3-7) | 1.64 nM
2 | CC(=O)N[C@@H](Cc1c[nH]c2ccccc12)C(=O)N[C@H](C(=O)N[C@H]1CCC(=O)NCCCC[C@@H](C(=O)NCC(=O)N[C@@H](CC(C)C)C(=O)N[C@@H](CC(C)C)C(=O)N[C@@H](CO)C(=O)N[C@@H](CCCCNC(=N)N)C(=O)N[C@@H](CO)C(=O)NCC(=O)NCC(=O)N[C@H](C(=O)N[C@H](C(=O)N[C@@H](CCCCNC(=N)N)C(=O)N[C@@H](CCCCN)C(=O)N[C@@H](CC(N)=O)C(=O)N[C@@H](Cc2ccccc2)C(=O)N[C@H](C(=O)N2CCC[C@H]2C(=O)N[C@H](C(=O)N[C@@H](CC(=O)O)C(=O)N[C@H](C(=O)NCC(=O)N2CCC[C@H]2C(=O)N[C@@H](Cc2ccccc2)C(=O)N[C@@H](C)C(=O)N[C@@H](Cc2ccccc2)C(N)=O)C(C)C)[C@@H](C)O)C(C)C)C(C)C)C(C)C)NC(=O)[C@H](CC(C)C)NC(=O)[C@H](CCCNC(=N)N)NC(=O)[C@H](Cc2c[nH]cn2)NC1=O)C(C)C [compound 905] (Ac-WVEHRLKGLLS[hArg]SGGVV[hArg]KNFVPTDVGPFAF-NH2; lactam 3-7) | 1.7 nM
3 | CC(=O)N[C@@H](Cc1c[nH]c2ccccc12)C(=O)N[C@H](C(=O)N[C@H]1CCC(=O)NCCCC[C@@H](C(=O)NCC(=O)N[C@@H](CC(C)C)C(=O)N[C@@H](CC(C)C)C(=O)N[C@@H](CO)C(=O)N[C@@H](CCCNC(N)=O)C(=O)N[C@@H](CO)C(=O)NCC(=O)NCC(=O)N[C@H](C(=O)N[C@H](C(=O)N[C@@H](CCCCNC(=N)N)C(=O)N[C@@H](CCCCN)C(=O)N[C@@H](CC(N)=O)C(=O)N[C@@H](Cc2ccccc2)C(=O)N[C@H](C(=O)N2CCC[C@H]2C(=O)N[C@H](C(=O)N[C@@H](CC(=O)O)C(=O)N[C@H](C(=O)NCC(=O)N2CCC[C@H]2C(=O)N[C@@H](Cc2ccccc2)C(=O)N[C@@H](C)C(=O)N[C@@H](Cc2ccccc2)C(N)=O)C(C)C)[C@@H](C)O)C(C)C)C(C)C)C(C)C)NC(=O)[C@H](CC(C)C)NC(=O)[C@H](CCCNC(=N)N)NC(=O)[C@H](Cc2c[nH]cn2)NC1=O)C(C)C [compound 906] (Ac-WVEHRLKGLLS[Cit]SGGVV[hArg]KNFVPTDVGPFAF-NH2; lactam 3-7) | 1.15 nM

Same assay, conditions: Table 2C; unconjugated peptide; read-out: Peptide IC50

Row | IC50 | SMILES
4 | 3 nM | CC(=O)N[C@@H](Cc1c[nH]c2ccccc12)C(=O)N[C@H](C(=O)N[C@H](C(=O)N[C@@H](Cc1c[nH]cn1)C(=O)N[C@@H](CCCNC(N)=O)C(=O)N[C@@H](CC(C)C)C(=O)N[C@@H](C)C(=O)NCC(=O)N[C@@H](CC(C)C)C(=O)N[C@@H](CC(C)C)C(=O)N[C@@H](CO)C(=O)N[C@@H](CCCNC(=N)N)C(=O)N1CCC[C@H]1C(=O)NCC(=O)NCC(=O)N[C@H](C(=O)N[C@H](C(=O)N[C@@H](CCCNC(=N)N)C(=O)N[C@@H](CCCCN)C(=O)N[C@@H](CC(N)=O)C(=O)N[C@@H](Cc1ccccc1)C(=O)N[C@H](C(=O)N1CCC[C@H]1C(=O)N[C@H](C(=O)N[C@@H](CC(=O)O)C(=O)N[C@H](C(=O)NCC(=O)N1CCC[C@H]1C(=O)N[C@@H](Cc1ccccc1)C(=O)N[C@@H](C)C(=O)N[C@@H](Cc1ccccc1)C(N)=O)C(C)C)[C@@H](C)O)C(C)C)C(C)C)C(C)C)[C@@H](C)O)C(C)C [compound 868] (Ac-WVTH[Cit]LAGLLSRPGGVVRKNFVPTDVGPFAF-NH2)
5 | 1.42 nM | CC(=O)N[C@@H](Cc1c[nH]c2ccccc12)C(=O)N[C@H](C(=O)N[C@H](C(=O)N[C@@H](Cc1c[nH]cn1)C(=O)N[C@@H](CCC(N)=O)C(=O)N[C@@H](CC(C)C)C(=O)N[C@@H](C)C(=O)NCC(=O)N[C@@H](CC(C)C)C(=O)N[C@@H](CC(C)C)C(=O)N[C@@H](CO)C(=O)N[C@@H](CCC(N)=O)C(=O)N[C@@H](CO)C(=O)NCC(=O)NCC(=O)N[C@H](C(=O)N[C@H](C(=O)N[C@@H](CCCCNC(=N)N)C(=O)N[C@@H](CCCCN)C(=O)N[C@@H](CC(N)=O)C(=O)N[C@@H](Cc1ccccc1)C(=O)N[C@H](C(=O)N1CCC[C@H]1C(=O)N[C@H](C(=O)N[C@@H](CC(=O)O)C(=O)N[C@H](C(=O)NCC(=O)N1CCC[C@H]1C(=O)N[C@@H](Cc1ccccc1)C(=O)N[C@@H](C)C(=O)N[C@@H](Cc1ccccc1)C(N)=O)C(C)C)[C@@H](C)O)C(C)C)C(C)C)C(C)C)[C@@H](C)O)C(C)C [compound 885] (Ac-WVTHQLAGLLSQSGGVV[hArg]KNFVPTDVGPFAF-NH2)

The remaining lines, values behind:

Row | SMILES | IC50
6 | CC[C@H](C)[C@H](NC(=O)[C@H](CCCNC(N)=O)NC(=O)[C@H](Cc1c[nH]cn1)NC(=O)[C@@H](NC(=O)[C@@H](NC(=O)[C@H](Cc1c[nH]c2ccccc12)NC(C)=O)C(C)C)[C@@H](C)O)C(=O)N[C@@H](CC(C)C)C(=O)N[C@@H](C)C(=O)NCC(=O)N[C@@H](CC(C)C)C(=O)N[C@@H](CC(C)C)C(=O)N1CCC[C@H]1C(=O)N[C@@H](CCCNC(=N)N)C(=O)N[C@@H](CO)C(=O)NCC(=O)NCC(=O)N[C@H](C(=O)N[C@H](C(=O)N[C@@H](CCCNC(=N)N)C(=O)N[C@@H](CCCCN)C(=O)N[C@@H](CC(N)=O)C(=O)N[C@@H](Cc1ccccc1)C(=O)N[C@H](C(=O)N1CCC[C@H]1C(=O)N[C@H](C(=O)N[C@@H](CC(=O)O)C(=O)N[C@H](C(=O)NCC(=O)N1CCC[C@H]1C(=O)N[C@@H](Cc1ccccc1)C(=O)N[C@@H](C)C(=O)N[C@@H](Cc1ccccc1)C(N)=O)C(C)C)[C@@H](C)O)C(C)C)C(C)C)C(C)C [compound 867] (Ac-WVTH[Cit]ILAGLLPRSGGVVRKNFVPTDVGPFAF-NH2) | 2.31 nM
7 | CC(=O)N[C@@H](Cc1c[nH]c2ccccc12)C(=O)N[C@H](C(=O)N[C@H]1CCC(=O)NCCCC[C@@H](C(=O)NCC(=O)N[C@H]2CCC(=O)NCCCC[C@@H](C(=O)NCC(=O)NCC(=O)N[C@H](C(=O)N[C@H](C(=O)N[C@@H](CCCCNC(=N)N)C(=O)N[C@@H](CCCCN)C(=O)N[C@@H](CC(N)=O)C(=O)N[C@@H](Cc3ccccc3)C(=O)N[C@H](C(=O)N3CCC[C@H]3C(=O)N[C@H](C(=O)N[C@@H](CC(=O)O)C(=O)N[C@H](C(=O)NCC(=O)N3CCC[C@H]3C(=O)N[C@@H](Cc3ccccc3)C(=O)N[C@@H](C)C(=O)N[C@@H](Cc3ccccc3)C(N)=O)C(C)C)[C@@H](C)O)C(C)C)C(C)C)C(C)C)NC(=O)[C@H](CCCNC(N)=O)NC(=O)[C@H](CO)NC(=O)[C@H](CC(C)C)NC2=O)NC(=O)[C@H](CC(C)C)NC(=O)[C@H](CCCNC(=N)N)NC(=O)[C@H](Cc2c[nH]cn2)NC1=O)C(C)C [compound 902] | 0.49 nM
